Experimental data reported in patent US11739101B2, “Bifunctional degraders of hematopoietic progenitor kinase and therapeutic uses thereof” (Nurix Therapeutics, Inc., priority 2020, dated 2023).

Target: T1, HPK1 (Homo sapiens, UniProt Q92918)
T1 construct: A HiBiT tag was introduced by CRISPR on the N terminus of HPK1 in Jurkat cells; host or cells: Jurkat (ATCC TIB-152), monoclonal CRISPR HiBiT knock-in line
Assay: HPK1 Cellular HiBiT Degradation Assay
Assay type: cell-based
Conditions: HiBiT-tagged HPK1 Jurkat cells, 24 hours, 10 uM to 0.1 nM; Dmax = 100 minus lowest % HPK1 remaining vs DMSO vehicle
Method in brief: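 Dmax is derived from four-parameter curves of % HPK1 remaining, as 100 minus the lowest value, normalized to DMSO-treated cells with parental Jurkat background subtracted. HiBiT-HPK1 knock-in Jurkat cells got compound for 24 hours (final 10 uM to 0.1 nM, 11 points) before lytic HiBiT luminescence. Cytotoxicity was checked on parallel CellTiter-Glo plates.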

T1 sequence (Q92918 whole entry): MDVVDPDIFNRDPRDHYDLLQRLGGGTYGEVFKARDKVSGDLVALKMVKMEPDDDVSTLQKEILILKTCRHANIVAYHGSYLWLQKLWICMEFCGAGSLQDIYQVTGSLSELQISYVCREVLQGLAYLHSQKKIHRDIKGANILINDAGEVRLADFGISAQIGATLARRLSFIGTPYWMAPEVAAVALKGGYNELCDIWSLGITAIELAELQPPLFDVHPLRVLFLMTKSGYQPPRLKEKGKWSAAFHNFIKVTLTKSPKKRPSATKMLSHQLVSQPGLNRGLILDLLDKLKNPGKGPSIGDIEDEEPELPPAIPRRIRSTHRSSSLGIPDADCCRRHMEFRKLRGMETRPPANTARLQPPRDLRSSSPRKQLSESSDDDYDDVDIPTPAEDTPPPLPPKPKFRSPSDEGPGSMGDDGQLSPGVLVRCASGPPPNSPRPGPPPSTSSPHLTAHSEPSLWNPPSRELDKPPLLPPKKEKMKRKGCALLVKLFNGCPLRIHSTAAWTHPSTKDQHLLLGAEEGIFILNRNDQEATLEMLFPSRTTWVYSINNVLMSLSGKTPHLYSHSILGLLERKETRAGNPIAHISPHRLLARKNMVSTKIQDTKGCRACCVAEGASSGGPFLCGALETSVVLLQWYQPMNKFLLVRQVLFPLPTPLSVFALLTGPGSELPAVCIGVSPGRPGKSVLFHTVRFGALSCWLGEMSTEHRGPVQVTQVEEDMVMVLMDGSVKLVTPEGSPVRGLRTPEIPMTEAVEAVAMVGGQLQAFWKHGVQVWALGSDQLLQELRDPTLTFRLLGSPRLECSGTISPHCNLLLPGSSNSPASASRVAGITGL

`Cc1cc(F)c(Nc2nc(-c3ccc4c(c3)N([C@H]3C[C@@H](N5CCCCC5)C3)C(=O)C43CCN(C(=O)c4cnn(C[C@H]5CC[C@H](Nc6cccc7c6C(=O)N(C6CCC(=O)NC6=O)C7=O)CC5)c4)CC3)cc3ncn(C(C)C)c23)cc1C(=O)NC(C)C` (stereo partly drawn) [Example 70, 4-fluoro-2-methyl-5-({6-[2-oxo-1′-(1-{[(1R,4R)-4-({2-[2,6-dioxopiperidin-3-yl]-1,3-dioxo-2,3-dihydro-1H-isoindol-4-yl}amino)cyclohexyl]methyl}-1H-pyrazole-4-carbonyl)-1-[(1s,3s)-3-(piperidin-1-yl)cyclobutyl]-1,2-dihydrospiro[indole-3,4′-piperidin]-6-yl]-3-(propan-2-yl)-3H-imidazo[4,5-c]pyridin-4-yl}amino)-N-(propan-2-yl)benzamide] was tested. Which Dmax did it give?
The Dmax was 45 to 65%.

`Cc1cc(F)c(Nc2nc(-c3ccc4c(c3)N([C@H]3C[C@@H](N5CCCCC5)C3)C(=O)C43CCN(C(=O)[C@@H]4CCN(C(=O)[C@H]5CC[C@H](Nc6ccc7c(c6)C(=O)N(C6CCC(=O)NC6=O)C7=O)CC5)C4)CC3)cc3ncn(C(C)C)c23)cc1C(=O)NC(C)C` (stereo partly drawn) [Example 81, 5-((6-(1′-((3R)-1-((1R,4R)-4-((2-(2,6-dioxopiperidin-3-yl)-1,3-dioxoisoindolin-5-yl)amino)cyclohexane-1-carbonyl)pyrrolidine-3-carbonyl)-2-oxo-1-((1s,3s)-3-(piperidin-1-yl)cyclobutyl)spiro[indoline-3,4′-piperidin]-6-yl)-3-isopropyl-3H-imidazo[4,5-c]pyridin-4-yl)amino)-4-fluoro-N-isopropyl-2-methylbenzamide] was tested. Which Dmax did it give?
The Dmax was 45 to 65%.

`Cc1cc(F)c(Nc2nc(-c3ccc4c(c3)N(C3CC(N5CCCCC5)C3)C(=O)C43CCN(C(=O)CCCCCCCCCNc4ccc5c(c4)C(=O)N(C4CCC(=O)NC4=O)C5=O)CC3)cc3ncn(C(C)C)c23)cc1C(=O)NC(C)C` (stereo not drawn) [Example 4, 5-((6-(1′-(10-((2-(2,6-dioxopiperidin-3-yl)-1,3-dioxoisoindolin-5-yl)amino)decanoyl)-2-oxo-1-((1s,3s)-3-(piperidin-1-yl)cyclobutyl)spiro[indoline-3,4′-piperidin]-6-yl)-3-isopropyl-3H-imidazo[4,5-c]pyridin-4-yl)amino)-4-fluoro-N-isopropyl-2-methylbenzamide] was tested. Which Dmax did it give?
Its Dmax is < 45%.

How did the Dmax turn out when `Cc1cc(F)c(Nc2nc(-c3ccc4c(c3)N([C@H]3C[C@@H](N5CCCCC5)C3)C(=O)C43CCN(C(=O)c4ccc(C(=O)N5C6CCC5CN(c5ccc7c(c5)C(=O)N(C5CCC(=O)NC5=O)C7=O)C6)cc4)CC3)cc3ncn(C(C)C)c23)cc1C(=O)NC(C)C` (stereo partly drawn) [Example 93, 5-({6-[1′-(4-{3-[2-(2,6-dioxopiperidin-3-yl)-1,3-dioxoisoindol-5-yl]-3,8-diazabicyclo[3.2.1]octane-8-carbonyl}benzoyl)-2-oxo-1-[(1s,3s)-3-(piperidin-1-yl)cyclobutyl]spiro[indole-3,4′-piperidin]-6-yl]-3-isopropylimidazo[4,5-c]pyridin-4-yl}amino)-4-fluoro-N-isopropyl-2-methylbenzamide] was run?
The Dmax was 45 to 65%.

How did the Dmax turn out when `Cc1cc(F)c(Nc2nc(-c3ccc4c(c3)N([C@H]3C[C@@H](N5CCCCC5)C3)C(=O)C43CCN(C(=O)CC4CCCN(CC5CCN(c6ccc7c(c6)C(=O)N(C6CCC(=O)NC6=O)C7=O)C5)C4)CC3)cc3ncn(C(C)C)c23)cc1C(=O)NC(C)C` (stereo partly drawn) [Example 29, 5-{[6-(1′-{2-[(3S)-1-({1-[2-(2,6-dioxopiperidin-3-yl)-1,3-dioxo-2,3-dihydro-1H-isoindol-5-yl]pyrrolidin-3-yl}Methyl)piperidin-3-yl]acetyl}-2-oxo-1-[(1s,3s)-3-(piperidin-1-yl)cyclobutyl]-1,2-dihydrospiro[indole-3,4′-piperidin]-6-yl)-3-(propan-2-yl)-3H-imidazo[4,5-c]pyridin-4-yl]amino}-4-fluoro-2-methyl-N-(propan-2-yl)benzamide] was run?
The Dmax was 45 to 65%.

For `Cc1cc(F)c(Nc2nc(-c3ccc4c(c3)N([C@H]3C[C@@H](N5CCCCC5)C3)C(=O)C43CCN(C(=O)c4ccn(C5CCN(Cc6cccc7c6C(=O)N(C6CCC(=O)NC6=O)C7=O)CC5)n4)CC3)cc3ncn(C(C)C)c23)cc1C(=O)NC(C)C` (stereo partly drawn) [Example 65, 5-{[6-(1′-{1-[1-({2-[2,6-dioxopiperidin-3-yl]-1,3-dioxo-2,3-dihydro-1H-isoindol-4-yl}methyl)piperidin-4-yl]-1H-pyrazole-3-carbonyl}-2-oxo-1-[(1s,3s)-3-(piperidin-1-yl)cyclobutyl]-1,2-dihydrospiro[indole-3,4′-piperidin]-6-yl)-3-(propan-2-yl)-3H-imidazo[4,5-c]pyridin-4-yl]amino}-4-fluoro-2-methyl-N-(propan-2-yl)benzamide], which Dmax is on record?
Its Dmax is 45 to 65%.

With `Cc1cc(F)c(Nc2nc(-c3ccc4c(c3)N(C3CC(N5CCCCC5)C3)C(=O)C43CCN(C(=O)c4ccc(C(=O)N(C)C5CCC(Nc6cccc7c6C(=O)N(C6CCC(=O)NC6=O)C7=O)CC5)cc4)CC3)cc3ncn(C(C)C)c23)cc1C(=O)NC(C)C` [Example 61, 4-fluoro-2-methyl-5-({6-[1′-(4-{methyl[(1R,4R)-4-{[2-(2,6-dioxopiperidin-3-yl)-1,3-dioxo-2,3-dihydro-1H-isoindol-4-yl]amino}cyclohexyl]carbamoyl}benzoyl)-2-oxo-1-[(1s,3s)-3-(piperidin-1-yl)cyclobutyl]-1,2-dihydrospiro[indole-3,4′-piperidin]-6-yl]-3-(propan-2-yl)-3H-imidazo[4,5-c]pyridin-4-yl}amino)-N-(propan-2-yl)benzamide] as the compound, how does the “Cellular HPK1 HiBiT: Dmax (%)” value read?
The value was “A (A>65%)”.

With `Cc1cc(F)c(Nc2nc(-c3ccc4c(c3)N([C@H]3C[C@@H](N5CCCCC5)C3)C(=O)C43CCN(C(=O)CCN4CCC(CCCCC(=O)N[C@H](C(=O)N5C[C@H](O)C[C@H]5C(=O)N[C@@H](C)c5ccc(-c6scnc6C)cc5)C(C)(C)C)CC4)CC3)cc3ncn(C(C)C)c23)cc1C(=O)NC(C)C` [Example 20, (2S,4R)-1-((S)-2-(5-(1-(3-(6-(4-((2-fluoro-5-(isopropylcarbamoyl)-4-methylphenyl)amino)-3-isopropyl-3H-imidazo[4,5-c]pyridin-6-yl)-2-oxo-1-((1s,3s)-3-(piperidin-1-yl)cyclobutyl)spiro[indoline-3,4′-piperidin]-1′-yl)-3-oxopropyl)piperidin-4-yl)pentanamido)-3,3-dimethylbutanoyl)-4-hydroxy-N—((S)-1-(4-(4-methylthiazol-5-yl)phenyl)ethyl)pyrrolidine-2-carboxamide] as the compound, how does the Dmax read?
Its Dmax is < 45%.

`Cc1cc(F)c(Nc2nc(-c3ccc4c(c3)N([C@H]3C[C@@H](N5CCCCC5)C3)C(=O)C43CCN(C(=O)CCC4CCN(CC(=O)N[C@H](C(=O)N5C[C@H](O)C[C@H]5C(=O)N[C@@H](C)c5ccc(-c6scnc6C)cc5)C(C)(C)C)CC4)CC3)cc3ncn(C(C)C)c23)cc1C(=O)NC(C)C` [Example 14, (2S,4R)-1-((S)-2-(2-(4-(3-(6-(4-((2-fluoro-5-(isopropylcarbamoyl)-4-methylphenyl)amino)-3-isopropyl-3H-imidazo[4,5-c]pyridin-6-yl)-2-oxo-1-((1s,3s)-3-(piperidin-1-yl)cyclobutyl)spiro[indoline-3,4′-piperidin]-1′-yl)-3-oxopropyl)piperidin-1-yl)acetamido)-3,3-dimethylbutanoyl)-4-hydroxy-N—((S)-1-(4-(4-methylthiazol-5-yl)phenyl)ethyl)pyrrolidine-2-carboxamide] was tested. Which Dmax did it give?
Its Dmax is 45 to 65%.

With `Cc1cc(F)c(Nc2nc(-c3ccc4c(c3)N([C@H]3C[C@@H](N5CCCCC5)C3)C(=O)C43CCN(C(=O)C4CCN(C(=O)C5CC(Nc6cccc7c6C(=O)N(C6CCC(=O)NC6=O)C7=O)C5)C4)CC3)cc3ncn(C(C)C)c23)cc1C(=O)NC(C)C` (stereo partly drawn) [Example 30, 4-fluoro-2-methyl-5-[(6-{2-oxo-1-[(1s,3s)-3-(piperidin-1-yl)cyclobutyl]-1′-[1-[(1s,3s)-3-({2-[2,6-dioxopiperidin-3-yl]-1,3-dioxo-2,3-dihydro-1H-isoindol-4-yl}amino)cyclobutanecarbonyl]pyrrolidine-3-carbonyl]-1,2-dihydrospiro[indole-3,4′-piperidin]-6-yl}-3-(propan-2-yl)-3H-imidazo[4,5-c]pyridin-4-yl)amino]-N-(propan-2-yl)benzamide] as the compound, how does the Dmax read?
The Dmax was < 45%.

Which Dmax does the source give for `Cc1cc(F)c(Nc2nc(-c3ccc4c(c3)N([C@H]3C[C@@H](N5CCCCC5)C3)C(=O)C43CCN(C(=O)c4ccc(CC5CCN(c6cccc7c6C(=O)N(C6CCC(=O)NC6=O)C7=O)CC5)cc4)CC3)cc3ncn(C(C)C)c23)cc1C(=O)NC(C)C` (stereo partly drawn) [Example 59, 5-[(6-{1′-[4-({1-[2-(2,6-dioxopiperidin-3-yl)-1,3-dioxo-2,3-dihydro-1H-isoindol-4-yl]piperidin-4-yl}Methyl)benzoyl]-2-oxo-1-[(1s,3s)-3-(piperidin-1-yl)cyclobutyl]-1,2-dihydrospiro[indole-3,4′-piperidin]-6-yl}-3-(propan-2-yl)-3H-imidazo[4,5-c]pyridin-4-yl)amino]-4-fluoro-2-methyl-N-(propan-2-yl)benzamide] here?
Its Dmax is 45 to 65%.

For `Cc1cc(F)c(Nc2nc(-c3ccc4c(c3)N([C@H]3C[C@@H](N5CCCCC5)C3)C(=O)C43CCN(C(=O)C4CCN(C(=O)C[C@@H]5CCCN(c6cccc7c6C(=O)N(C6CCC(=O)NC6=O)C7=O)C5)C4)CC3)cc3ncn(C(C)C)c23)cc1C(=O)NC(C)C` (stereo partly drawn) [Example 32, 5-({6-[1′-(1-{2-[(3S)-1-{2-[2,6-dioxopiperidin-3-yl]-1,3-dioxo-2,3-dihydro-1H-isoindol-4-yl}piperidin-3-yl]acetyl}pyrrolidine-3-carbonyl)-2-oxo-1-[(1s,3s)-3-(piperidin-1-yl)cyclobutyl]-1,2-dihydrospiro[indole-3,4′-piperidin]-6-yl]-3-(propan-2-yl)-3H-imidazo[4,5-c]pyridin-4-yl}amino)-4-fluoro-2-methyl-N-(propan-2-yl)benzamide], which Dmax is on record?
The Dmax was < 45%.
